Measured values from patent US9957265B2, “N-(2-cyano heterocyclyl) pyrazolo pyridones as janus kinase inhibitors” (Merck Sharp & Dohme Corp., priority 2013, dated 2018).
Like-named read-outs stand apart in the source and are kept apart here.

Columns and labels:
JAK2 = JAK2 (Homo sapiens (Human), UniProt O60674); experiment: Jak Biochemical HTRF Assay (JAK2)
JAK1 = JAK1 (Homo sapiens (Human), UniProt P23458); experiment: Jak Biochemical HTRF Assay (JAK1); settings: recombinant GST-tagged catalytic domain, [ATP] 31.8 μM, unit not given (compound concentrations tested given in nM)
Description: Jak Biochemical HTRF Assay Protocol
Subsequent reagent additions employed an Agilent Bravo.

[1] = JAK2 IC50, recombinant GST-tagged catalytic domain, [ATP] 8.5 μM, unit not given (compound concentrations tested given in nM)
[2] = read-out: JAK2 IC50, recombinant GST-tagged catalytic domain, [ATP] 8.5 μM, unit not given (compound concentrations tested given in nM)

Chain of JAK1 (P23458 875-1153): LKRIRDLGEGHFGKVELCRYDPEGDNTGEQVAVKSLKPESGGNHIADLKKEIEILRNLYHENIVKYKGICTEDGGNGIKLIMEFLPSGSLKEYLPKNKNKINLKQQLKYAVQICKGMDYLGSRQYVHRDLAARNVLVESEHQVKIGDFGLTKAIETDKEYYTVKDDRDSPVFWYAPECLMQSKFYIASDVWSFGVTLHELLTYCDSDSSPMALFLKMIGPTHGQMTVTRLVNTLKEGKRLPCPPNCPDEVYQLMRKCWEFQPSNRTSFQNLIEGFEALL
Chain of JAK2 (O60674 849-1124): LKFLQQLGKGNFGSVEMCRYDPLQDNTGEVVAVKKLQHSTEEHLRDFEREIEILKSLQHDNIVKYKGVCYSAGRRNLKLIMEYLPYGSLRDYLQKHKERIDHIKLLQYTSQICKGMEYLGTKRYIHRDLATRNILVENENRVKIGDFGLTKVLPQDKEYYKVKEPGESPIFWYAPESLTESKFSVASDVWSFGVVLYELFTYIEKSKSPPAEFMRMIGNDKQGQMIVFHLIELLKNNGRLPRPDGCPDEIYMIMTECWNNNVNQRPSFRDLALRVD

Row | IC50 (JAK2; [1]) | IC50 (JAK1) | IC50 (JAK2; [2]) | SMILES
1 | 0.3 nM | 0.18 nM |  | CC1(C)CC1NC(c1ccc(Nc2nn([C@H]3COCC[C@@H]3C#N)c3cc[nH]c(=O)c23)cc1)C(F)(F)F (single isomer, unassigned) [Example 1-49, (3R,4S)-3-{3-[(4S or 4R-{1S or 1R-[(2,2-dimethylcyclopropyl)amino]-2,2,2-trifluoroethyl}phenyl)amino]-4-oxo-4,5-dihydro-1H-pyrazolo[4,3-c]pyridin-1-yl}tetrahydro-2H-pyran-4-carbonitrile]
2 | 0.21 nM | 0.14 nM |  | CC1(C)CC1NC(c1ccc(Nc2nn([C@H]3COCC[C@@H]3C#N)c3cc[nH]c(=O)c23)cc1)C(F)(F)F (single isomer, unassigned) [Example 1-46, (3R,4S)-3-{3-[(4S or 4R-{1S or 1R-[(2,2-dimethylcyclopropyl)amino]-2,2,2-trifluoroethyl}phenyl)amino]-4-oxo-4,5-dihydro-1H-pyrazolo[4,3-c]pyridin-1-yl}tetrahydro-2H-pyran-4-carbonitrile]

Further lines, the compound ahead of its results:

Row | SMILES | IC50 (JAK2; [1]) | IC50 (JAK1) | IC50 (JAK2; [2])
3 | CC(C)(C)S(=O)(=O)c1ccc(Nc2nn([C@@H]3COCCC[C@H]3C#N)c3cc[nH]c(=O)c23)cc1 (single isomer, unassigned) [Example 1-23, (3S,4R or 3R,4S)-3-(3-{[4-(tert-butylsulfonyl)phenyl]amino}-4-oxo-4,5-dihydro-1H-pyrazolo[4,3-c]pyridin-1-yl)oxepane-4-carbonitrile] | 0.69 nM | 0.25 nM | 
4 | CS(=O)(=O)c1ccc(Nc2nn([C@@H]3COCC[C@H]3C#N)c3cc[nH]c(=O)c23)cc1 [Example 1-1, (3S,4R)-3-(3-((4-(methylsulfonyl)phenyl)amino)-4-oxo-4,5-dihydro-1H-pyrazolo[4,3-c]pyridin-1-yl)tetrahydro-2H-pyran-4-carbonitrile] |  | 7.06 nM | 11.5 nM
5 | CC(C)S(=O)(=O)c1ccc(Nc2nn([C@H]3COCC[C@@H]3C#N)c3cc[nH]c(=O)c23)cc1 [Example 1-11, (3R,4S)-3-(3-((4-(isopropylsulfonyl)phenyl)amino)-4-oxo-4,5-dihydro-1H-pyrazolo[4,3-c]pyridin-1-yl)tetrahydro-2H-pyran-4-carbonitrile] |  | 0.09 nM | 0.34 nM
